Experimental data as given in patent US5079241A, “Cephalosporin derivatives and pharmaceutical compositions in which they are present” (Sanofi, priority 1987, dated 1992).
In brackets after ≈: the same amount, converted by molar mass. Where two headings read alike, the source gives them in different places.

Assays:
[1] = tested on: Escherichia coli C1/Col E1::Tn3; assay: bacteriostatic action in vitro by the dilution method (MIC); type: cell-based; settings: read-out: minimum inhibitory concentrations (MIC)
Method: (§1) The bacteriostatic action was determined in vitro by the dilution method. The study was carried out on both Gram-positive strains and Gram-negative strains.
(§2) The results for various products according to the invention, expressed as minimum inhibitory concentrations (MIC - μg/ml), are collated in Table 3.

[2] = tested on: Escherichia coli SOL RL 90; assay: as above; type: cell-based; settings: SOLRL90, read-out: minimum inhibitory concentrations (MIC)
Method: as §1, §2

[3] = tested on: Klebsiella pneumoniae R30; assay: as above; type: cell-based; settings: read-out: minimum inhibitory concentrations (MIC)
Method: as §1, §2

[4] = tested on: Proteus vulgaris GN 76/C-1; assay: as above; type: cell-based; settings: GN76, read-out: minimum inhibitory concentrations (MIC)
Method: as §1, §2

Providencia 155 = assay: as above; type: cell-based; settings: read-out: minimum inhibitory concentrations (MIC)
Method: as §1, §2

[5] = tested on: Pseudomonas aeruginosa NCTC 8203; assay: as above; type: cell-based; settings: NCTC8203, read-out: minimum inhibitory concentrations (MIC)
Method: as §1, §2

Staph. aureus Smith = assay: as above; type: cell-based; settings: Staphylococcus aureus, read-out: minimum inhibitory concentrations (MIC)
Method: as §1, §2

[6] = pharmacokinetic behavior in baboons, 20 mg/kg (Tables 4 and 6); type: in vivo; settings: baboon; for Cmax: read-out: Max plasma concentration; for half-life: read-out: t1/2 β; for AUC(0-t) at 6 h: trapezium method; for concentration at 0.5 h: 30 minutes; for concentration at 0.75 h: 45 minutes; for concentration at 1 h: 60 minutes; for concentration at 1.5 h: 90 minutes; for concentration at 2 h: 120 minutes; for concentration at 3 h: 180 minutes; for concentration at 4 h: 240 minutes; for concentration at 5 h: 300 minutes; for concentration at 5.5 h: 330 minutes; for dose excreted at 6 h: urine, 6 h (Table 6), read-out: Excretion in the urine
Method: Furthermore, the pharmacokinetic behavior of the products according to the invention was studied in baboons after administration at a dose of 20 mg/kg by intramuscular injection or intravenous injection.
Blood samples taken at various times after administration are used to determine the plasma concentration of the product studied by microbiological assay.
It is thus possible to construct the curve showing the plasma concentration as a function of time, and to determine different pharmacokinetic parameters of the compound studied:
the elimination half-life (t1/2 β) is calculated by the formula [formula] in which β represents the elimination gradient or slope;
the area under the curve (AUC) is determined by the trapezium method.
The plasma concentrations obtained with various products of the invention are collated in Tables 4 and 5. They are expressed in μg/ml.

[7] = protein binding by comparing two standard scales in baboon plasma and phosphate buffer; type: in vitro ADME; settings: baboon plasma vs phosphate buffer (pH 7, 0.03M)
Description: Furthermore, the protein binding is obtained by comparing two standard scales, one being prepared in baboon plasma and the other in phosphate buffer (pH 7, 0.03M).

[8] = plasma, 20 mg/kg, 20 mg/kg (Table 6), read-out: Plasma concentration at 6 h
[9] = plasma, 20 mg/kg, 360 minutes, read-out: plasma concentration

SMILES | MIC [1] [µg/mL] | MIC [2] [µg/mL] | MIC [3] [µg/mL] | MIC [4] [µg/mL] | MIC (Providencia 155) [µg/mL] | MIC [5] [µg/mL] | MIC (Staph. aureus Smith) [µg/mL] | Tmax ([6]; plasma, 20 mg/kg (Table 6)) [h] | Cmax ([6]; plasma, 20 mg/kg (Table 6)) [µg/mL] | half-life ([6]; plasma, 20 mg/kg (Table 6)) [h] | AUC(0-t) at 6 h ([6]; plasma, 20 mg/kg (Table 6)) [µg·h/mL] | concentration at 6 h [6, 8] [µg/mL] | concentration at 10 min ([6]; plasma, 20 mg/kg) [µg/mL] | concentration at 0.5 h ([6]; plasma, 20 mg/kg) [µg/mL] | concentration at 0.75 h ([6]; plasma, 20 mg/kg) [µg/mL] | concentration at 1 h ([6]; plasma, 20 mg/kg) [µg/mL] | concentration at 1.5 h ([6]; plasma, 20 mg/kg) [µg/mL] | concentration at 2 h ([6]; plasma, 20 mg/kg) [µg/mL] | concentration at 3 h ([6]; plasma, 20 mg/kg) [µg/mL] | concentration at 4 h ([6]; plasma, 20 mg/kg) [µg/mL] | further results
CO/N=C(\C(=O)NC1C(=O)N2C(C(=O)O)=C(COC(=O)c3ccc(NC(=O)[C@@H](N)CCCN)c(O)c3)CSC12)c1csc(N)n1 (some centres unmarked) [SR 44219] | 0.12 (≈ 0.181 µM) | 0.12 (≈ 0.181 µM) | 4 (≈ 6.04 µM) | 16 (≈ 24.1 µM) | 1 (≈ 1.51 µM) | 1 (≈ 1.51 µM) | 0.5 (≈ 0.754 µM) |  |  |  |  |  |  |  |  |  |  |  |  |  | 
CC(C)(ON=C(C(=O)NC1C(=O)N2C(C(=O)O)=C(COC(=O)c3ccc(NC(=O)CN)cc3)CSC12)c1csc(N)n1)C(=O)O (centres unmarked) [Product A, reference compound] |  |  |  |  |  |  |  | 0.75 | 69.5 | 3.25 | 284 | 17.3 | 20.8 | 44.4 | 59.3 | 60 | 55.5 | 53.3 | 40 | 36.2 | concentration at 20 min ([6]; plasma, 20 mg/kg, 20 minutes): 36.8 µg/mL; concentration at 5 h ([6]; plasma, 20 mg/kg): 27.2 µg/mL; concentration at 5.5 h ([6]; plasma, 20 mg/kg): 23.7 µg/mL; concentration at 6 h [6, 9]: 17.3 µg/mL; dose excreted at 6 h ([6]; 20 mg/kg): 23%; fraction unbound [7]: 0.55
CO/N=C(\C(=O)NC1C(=O)N2C(C(=O)O)=C(COC(=O)c3ccc(NC(=O)C(N)CCN)c(O)c3)CSC12)c1csc(N)n1 (centres unmarked) [SR 44218] | 0.25 (≈ 0.385 µM) | 0.5 (≈ 0.771 µM) | 8 (≈ 12.3 µM) | 16 (≈ 24.7 µM) | 2 (≈ 3.08 µM) | 4 (≈ 6.17 µM) | 0.5 (≈ 0.771 µM) |  |  |  |  |  |  |  |  |  |  |  |  |  | 
CO/N=C(\C(=O)NC1C(=O)N2C(C(=O)O)=C(COC(=O)c3ccc(NC(=O)CCN)c(O)c3)CSC12)c1csc(N)n1 (centres unmarked) [SR 43853] | 0.06 (≈ 0.0968 µM) | 0.25 (≈ 0.403 µM) | 4 (≈ 6.46 µM) | 16 (≈ 25.8 µM) | 1 (≈ 1.61 µM) | 2 (≈ 3.23 µM) | 0.25 (≈ 0.403 µM) |  |  |  |  |  |  |  |  |  |  |  |  |  | 
CC(C)(O/N=C(\C(=O)NC1C(=O)N2C(C(=O)O)=C(COC(=O)c3ccc(NC(=O)CCN)c(O)c3)CSC12)c1csc(N)n1)C(=O)O (centres unmarked) [SR 43904] | 0.25 (≈ 0.361 µM) | 2 (≈ 2.89 µM) | 1 (≈ 1.45 µM) | 0.25 (≈ 0.361 µM) | 1 (≈ 1.45 µM) | 1 (≈ 1.45 µM) | 4 (≈ 5.78 µM) | 1.5 | 94.1 | 4.42 | 348 | 34.3 | 12.6 | 52.4 | 73 | 76.1 | 94.1 | 76.1 | 59.7 | 57.3 | concentration at 5 h ([6]; plasma, 20 mg/kg): 53.4 µg/mL; concentration at 5.5 h ([6]; plasma, 20 mg/kg): 39.9 µg/mL; concentration at 6 h [6, 9]: 34.3 µg/mL; dose excreted at 6 h ([6]; 20 mg/kg): 17%; fraction unbound [7]: 0.29
